Common to all, as to test: relative viability (nuclei count vs DMSO), 5 days (fraction); higher = more cells survive
Compound in experiment [1]: CC1=CC=C(C=C1)C(=O)CN2C3=C(CCCC3)SC2=N [Pifithrin_alpha] + CC(C)C[C@H](NC(=O)[C@H](Cc1ccccc1)NC(=O)c1cnccn1)B(O)O [Bortezomib] (partner 0.002 µM)
A digest of the protocol:
(§1)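 Relative viability equals treated-well nuclei counts divided by vehicle-well nuclei counts. Counts came from 4× images of lung cancer cell lines grown in 1536-well plates for 5 days after pin-tool dosing on the day after seeding. Dosing used one drug alone or a fixed anchor-drug dose plus five library-drug doses (not always all listed) in √10 steps, and values are medians of duplicate plates.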

Compound in experiment [2]: CC1=CC=C(C=C1)C(=O)CN2C3=C(CCCC3)SC2=N [Pifithrin_alpha] + C[C@]1(O)C[C@@H](c2nc(-c3ccc4ccc(-c5ccccc5)nc4c3)c3c(N)nccn32)C1 [Linsitinib] (partner 1 µM)
The essentials: as §1

Compound in the experiment “Axitinib + Pemetrexed”: CNC(=O)c1ccccc1Sc1ccc2c(/C=C/c3ccccn3)n[nH]c2c1 [Axitinib] + Nc1nc2[nH]cc(CCc3ccc(C(=O)N[C@@H](CCC(=O)O)C(=O)O)cc3)c2c(=O)[nH]1 [Pemetrexed] (partner 0.2 µM)
A digest of the protocol:
as §1

Compound in the experiment “Bemcentinib + OSI-027”: Nc1nc(Nc2ccc3c(c2)CC[C@@H](N2CCCC2)CC3)nn1-c1cc2c(nn1)-c1ccccc1CCC2 [Bemcentinib] + COc1cccc2cc(-c3nc([C@H]4CC[C@H](C(=O)O)CC4)n4ncnc(N)c34)[nH]c12 [OSI-027] (partner 0.5 µM)
A digest of the protocol:
as §1

Regarding NCI-H1703, the relative viability worked out at 0.416 in experiment [1] (first compound 1 µM); 0.344 in experiment [1] (first compound 3.162 µM); 0.368 in experiment [1] (first compound 10 µM); 0.288 in experiment [1] (first compound 31.62 µM); 0.279 in experiment [1] (first compound 100 µM); 0.596 in experiment [2] (first compound 1 µM). Further, the relative viability in experiment [2] (first compound 3.162 µM) came out at 0.6; in experiment [2] (first compound 10 µM) it was 0.786; in experiment [2] (first compound 31.62 µM) it was 0.733; in experiment [2] (first compound 100 µM), 0.635.
For NCI-H1793, the relative viability was 1.04 in the experiment with Axitinib + Pemetrexed (first compound 0.005 µM); 0.568 with Axitinib + Pemetrexed (first compound 0.01581 µM); 1.01 in the experiment with Axitinib + Pemetrexed (first compound 0.05 µM); 0.821 with Axitinib + Pemetrexed (first compound 0.1581 µM); 0.791 with Axitinib + Pemetrexed (first compound 0.5 µM); 0.896 in experiment [2] (first compound 1 µM). Moreover, the relative viability in experiment [2] (first compound 3.162 µM) was 0.7; in experiment [2] (first compound 10 µM) it was 0.812; in experiment [2] (first compound 31.62 µM), 0.787; in experiment [2] (first compound 100 µM), 0.964; with Bemcentinib + OSI-027 (first compound 0.04 µM), 0.265; in the experiment with Bemcentinib + OSI-027 (first compound 0.1265 µM) it was 0.305. Further, the relative viability with Bemcentinib + OSI-027 (first compound 0.4 µM) stood at 0.299; with Bemcentinib + OSI-027 (first compound 4 µM), 0.282.
NCI-H1944: the relative viability with Axitinib + Pemetrexed (first compound 0.005 µM) was found to be 0.6; with Axitinib + Pemetrexed (first compound 0.01581 µM), 0.583; with Axitinib + Pemetrexed (first compound 0.05 µM) it was 0.707; in the experiment with Axitinib + Pemetrexed (first compound 0.1581 µM) it was 0.657; in the experiment with Axitinib + Pemetrexed (first compound 0.5 µM), 0.652; in experiment [2] (first compound 1 µM), 1.18. Also, the relative viability in experiment [2] (first compound 3.162 µM) was found to be 1.23; in experiment [2] (first compound 10 µM) it was 1.11; in experiment [2] (first compound 100 µM) it was 1.04; in the experiment with Bemcentinib + OSI-027 (first compound 0.04 µM) it was 0.43; in the experiment with Bemcentinib + OSI-027 (first compound 0.1265 µM) it was 0.483; with Bemcentinib + OSI-027 (first compound 0.4 µM), 0.407. Moreover, the relative viability with Bemcentinib + OSI-027 (first compound 1.265 µM) is 0.413; in the experiment with Bemcentinib + OSI-027 (first compound 4 µM), 0.41.
As to NCI-H2170, the relative viability in the experiment with Axitinib + Pemetrexed (first compound 0.005 µM) amounted to 0.281; with Axitinib + Pemetrexed (first compound 0.01581 µM), 0.252; in the experiment with Axitinib + Pemetrexed (first compound 0.05 µM), 0.261; with Axitinib + Pemetrexed (first compound 0.1581 µM) it was 0.27; with Axitinib + Pemetrexed (first compound 0.5 µM), 0.27; with Bemcentinib + OSI-027 (first compound 0.04 µM), 0.739. Moreover, the relative viability with Bemcentinib + OSI-027 (first compound 0.1265 µM) turned out to be 0.743; in the experiment with Bemcentinib + OSI-027 (first compound 0.4 µM) it was 0.76; with Bemcentinib + OSI-027 (first compound 1.265 µM), 0.729; with Bemcentinib + OSI-027 (first compound 4 µM), 0.807.
Take NCI-H2342: the relative viability with Axitinib + Pemetrexed (first compound 0.005 µM) turned out to be 0.753; with Axitinib + Pemetrexed (first compound 0.01581 µM) it was 0.792; in the experiment with Axitinib + Pemetrexed (first compound 0.05 µM), 0.707; in the experiment with Axitinib + Pemetrexed (first compound 0.1581 µM) it was 0.782; in the experiment with Axitinib + Pemetrexed (first compound 0.5 µM), 0.669; in the experiment with Bemcentinib + OSI-027 (first compound 0.04 µM), 0.618. The relative viability was 0.655 with Bemcentinib + OSI-027 (first compound 0.1265 µM), 0.689 with Bemcentinib + OSI-027 (first compound 0.4 µM), 0.56 with Bemcentinib + OSI-027 (first compound 1.265 µM) and 0.567 with Bemcentinib + OSI-027 (first compound 4 µM).
As to SK-MES-1, the relative viability in the experiment with Axitinib + Pemetrexed (first compound 0.005 µM) was 0.949; in the experiment with Axitinib + Pemetrexed (first compound 0.01581 µM), 1.03; with Axitinib + Pemetrexed (first compound 0.05 µM), 1.02; in the experiment with Axitinib + Pemetrexed (first compound 0.1581 µM), 1.04; in the experiment with Axitinib + Pemetrexed (first compound 0.5 µM) it was 1.04; in experiment [2] (first compound 1 µM), 1. Besides, the relative viability in experiment [2] (first compound 3.162 µM) was 1.01; in experiment [2] (first compound 10 µM) it was 0.93; in experiment [2] (first compound 31.62 µM), 0.737; in experiment [2] (first compound 100 µM) it was 0.921; with Bemcentinib + OSI-027 (first compound 0.04 µM), 0.645; in the experiment with Bemcentinib + OSI-027 (first compound 0.1265 µM), 0.595. Moreover, the relative viability in the experiment with Bemcentinib + OSI-027 (first compound 0.4 µM) is 0.666; with Bemcentinib + OSI-027 (first compound 1.265 µM), 0.799; with Bemcentinib + OSI-027 (first compound 4 µM), 0.69.
For the cell line SW 900, the relative viability with Axitinib + Pemetrexed (first compound 0.005 µM) is 0.479; with Axitinib + Pemetrexed (first compound 0.05 µM), 0.469; with Axitinib + Pemetrexed (first compound 0.1581 µM), 0.505; in the experiment with Axitinib + Pemetrexed (first compound 0.5 µM) it was 0.479; with Bemcentinib + OSI-027 (first compound 0.04 µM) it was 0.446; with Bemcentinib + OSI-027 (first compound 0.1265 µM) it was 0.544. Besides, the relative viability with Bemcentinib + OSI-027 (first compound 0.4 µM) was 0.71; with Bemcentinib + OSI-027 (first compound 1.265 µM), 0.473; in the experiment with Bemcentinib + OSI-027 (first compound 4 µM), 0.419.

(Values after the supplement of paper PMC10307832.)
